This is an account of results in PMC9122897, “SHR1032, a novel STING agonist, stimulates anti-tumor immunity and directly induces AML apoptosis” (Scientific Reports, 2022).

For experiment [1], the system named is MV4-11 cells. In words: Western blot of TBK1 and STING phosphorylation. Type of experiment: cell-based, human. Particulars: MV4-11, 1 µM. As to the method: (§1) (a–d) AML cells were treated with STING agonists and standard of care cytarabine, and cell viability was measured by CellTiter Glo in (a) THP1-STING-R232, (b) THP1-STING-KO, (c) MV-4-11 and (d) MOLM-16. (e) MV-4-11, MOLM-16 and THP1-STING-KO cells were stimulated with 1 µM of SHR1032 for the indicated time points. The amount of pTBK1, total TBK1, pSTING, total STING and α-tubulin was measured by Western blot. pSTING phosphorylated STING. THP1 reporter cells were treated for 24 h with a total of 100 k cells and 150 ul media in each well a 96-well plate. Following the incubation, 20 µl of supernatant was transferred to an opaque 96 well ½ area plate and incubated for 30 s with 50 µl of QUANTI-Luc substrate (InvivoGen) per manufacturer’s instructions. Luminescence signal was measured using Tecan infinite M1000. EC50 values were calculated using non-linear regression analysis of GraphPad Prism. Cell growth was monitored by CellTiter-Glo Luminescent Cell Viability Assay (Promega) per manufacture’s protocol. GI50 values were calculated using non-linear regression analysis of GraphPad Prism. Cell lysates for western blotting were made in RIPA buffer (Sigma) with Halt Protease and Phosphatase Inhibitors (Thermo Scientific). Antibodies against pSTING, TBK1, pTBK1 and tubulin were purchased from Cell Signaling Technologies, and anti-STING was purchased from Protein Tech.

Experiment [2] relates to THP1-STING-KO cells. The experiment can be described thus: Western blot of TBK1 and STING phosphorylation. Type of experiment: cell-based, human. Particulars: 1 µM. As for the experimental part: as §1
Background: In western blotting, separated proteins are transferred to a membrane and probed.

The test system of experiment [3] is MOLM-16 cells. In words: Western blot of TBK1 and STING phosphorylation. Type of experiment: cell-based, human. The settings on record: MOLM-16, 1 µM. As to the method:
as §1

The test system of experiment [4] is THP1-STING-R232 cells. The experiment can be described thus: Western blot of TBK1 phosphorylation. Type of experiment: cell-based, human. The settings on record: 10 µM SHR1032 vs 40 µM ADU-S100. As for the experimental part: (§2) Figure 2 SHR1032 specifically and potently activates STING signaling pathway. IRF luciferase reporter assays in (a) THP1-STING-R232, THP1-STING-H232, THP1-STING-HAQ, and THP1-STING-KO cells. Cells were stimulated for 24 h with the indicated STING compounds and assessed for luciferase activity. IFNβ production and activation of cGAS-STING signaling pathway in (b) human THP1-STING-R232, human PBMCs from a donor homozygous for the R232 variant, cynomolgus PBMC, and mouse RAW164.7 macrophage cells were treated with STING agonists for 5 h. IFNβ in media was quantified by human or mouse ELISA kits respectively. (c) THP1-STING-R232 cells and mouse RAW164.7 macrophage cells were stimulated with 40 µM of ADU-S100 or 10 µM of SHR1032 for the indicated time points. The amount of pTBK1, total TBK1, STING and α-tubulin was measured by western blotting.
(§3) THP1 reporter cells were treated for 24 h with a total of 100 k cells and 150 ul media in each well a 96-well plate. […] Luminescence signal was measured using Tecan infinite M1000. EC50 values were calculated using non-linear regression analysis of GraphPad Prism. Cell growth was monitored by CellTiter-Glo Luminescent Cell Viability Assay (Promega) per manufacture’s protocol. GI50 values were calculated using non-linear regression analysis of GraphPad Prism. […]

Experiment [5] has as its system MV4-11 cells. In words: IFNβ ELISA. Type of experiment: cell-based, human. Particulars: MV4-11, 5 hrs, compared to THP1 cells. As to the method:
(§4) Human and Cynomolgous PBMC’s were thawed and spun down in Lymphocyte media (ZENBIO) and resuspended in media to 1.5 x 10^6 cells/ml density. Mouse RAW 264.7 cells were detached from the flask and resuspended in media to 1.5 x 10^6 cells/ml density. Then, 100 µl of media containing the cells was added to each well of a 96-well plate containing compound in 50 µl of media. Plates were incubated for 5 h at 37 °C and supernatant was collected for ELISA analysis. Human and monkey IFN-β protein concentration was measured using human IFN-β Quantikine ELISA Kits (R&D Systems) per manufacture’s protocol. Mouse IFN-β was measured using mouse IFN-β Quantikine ELISA Kits (R&D Systems) per manufacture’s protocol. Mouse TNFα, IFN-β and IL-6 in the tumor lysates and plasma was measured by Quantikine ELISA Kits (R&D Systems) per manufacture’s protocol.
(§5) Figure S2. IFNβ measurement in MV4-11, MOLM-16 and THP1-STING-R232 cells treated with SHR1032 for 5 hrs.
In general terms: ELISA stands for enzyme-linked immunosorbent assay.

For experiment [6], the system named is MOLM-16 cells. The experiment can be described thus: IFNβ ELISA. Type of experiment: cell-based, human. The settings on record: MOLM-16, 5 hrs, compared to THP1 cells. As for the experimental part:
as §4, §5

The subject of experiment [7] is THP1-STING-R232 cells. The experiment can be described thus: CellTiter-Glo cell growth. Type of experiment: cell-based, human. The settings on record: Homo sapiens. As for the experimental part: as §1
On the technique in general: ATP-based viability assays read luminescence as a measure of living cells.

For experiment [8], the system named is THP1-STING-KO cells. The experiment can be described thus: CellTiter-Glo cell growth. It is filed as cell-based, human. As to the method:
as §1

In experiment [9] the test system is THP1 reporter cells carrying human STING R232, H232 and HAQ variants. In words: IRF luciferase reporter assay in THP1 cells with STING variants. It is filed as cell-based. Particulars: compared to cGAMP and ADU-S100; 24 h. The source says: Five haplotypes of human STING have been identified (R232, H232, HAQ, AQ, and Q alleles), which vary at amino acid positions 71, 230, 232, and 293[16]. R232, HAQ and H232 were reported to be the three major alleles. We tested the responsiveness of the human STING alleles to STING agonists in THP1 reporter cells carrying human STING R232, H232 and HAQ variants. […] To examine whether the activities of STING agonists are on-target, we treated THP1-STING-KO reporter cells with the agonists and no luciferase reporter activity was detected, confirming the cellular activity of STING agonists we observed are specific from STING.
Figure 2 SHR1032 specifically and potently activates STING signaling pathway. […] Cells were stimulated for 24 h with the indicated STING compounds and assessed for luciferase activity. […] IFNβ in media was quantified by human or mouse ELISA kits respectively. […] The amount of pTBK1, total TBK1, STING and α-tubulin was measured by western blotting.
THP1 reporter cells were treated for 24 h with a total of 100 k cells and 150 ul media in each well a 96-well plate. […] Luminescence signal was measured using Tecan infinite M1000. EC50 values were calculated using non-linear regression analysis of GraphPad Prism. Cell growth was monitored by CellTiter-Glo Luminescent Cell Viability Assay (Promega) per manufacture’s protocol. […]

Experiment [10] deals with mouse RAW164.7 macrophage cells. In words: Western blot of TBK1 phosphorylation. Particulars: 10 µM SHR1032 vs 40 µM ADU-S100. Type of experiment: cell-based. As for the experimental part:
as §2, §3

The subject of another experiment is cynomolgus PBMC. In words: IFNβ ELISA. It is filed as cell-based, cynomolgus monkey. The settings on record: 5 h, vs ADU-S100. As for the experimental part:
as §2
Human and Cynomolgous PBMC’s were thawed and spun down in Lymphocyte media (ZENBIO) and resuspended in media to 1.5 x 10^6 cells/ml density. […] Human and monkey IFN-β protein concentration was measured using human IFN-β Quantikine ELISA Kits (R&D Systems) per manufacture’s protocol. Mouse IFN-β was measured using mouse IFN-β Quantikine ELISA Kits (R&D Systems) per manufacture’s protocol. Mouse TNFα, IFN-β and IL-6 in the tumor lysates and plasma was measured by Quantikine ELISA Kits (R&D Systems) per manufacture’s protocol.

Experiment [11] has as its system MV4-11 cells. In words: CellTiter-Glo cell growth. It is filed as cell-based. The settings on record: Homo sapiens; MV4-11, CellTiter Glo. As for the experimental part: as §1
Experiment [12] relates to MOLM-16 cells. In words: CellTiter-Glo cell growth. Type of experiment: cell-based. Particulars: Homo sapiens, MOLM16; MOLM-16, CellTiter Glo. As to the method: as §1

Turning to `CCn1nc(C)cc1C(=O)Nc1nc2cc(C(N)=O)cc(OC)c2n1CCC[C@H]1COc2cc(C(N)=O)cc3nc(NC(=O)c4cc(C)nn4CC)n1c23` [SHR1032], the “TBK1 and STING phosphorylation” value in the experiment with MV4-11 cells [1] is “induced TBK1 and STING phosphorylation”; in the experiment on THP1-STING-KO cells [2], “not in THP1-STING-KO cells”; in the experiment on MOLM-16 cells [3] it was “induced TBK1 and STING phosphorylation”. Also, the values for the TBK1 phosphorylation result (with THP1-STING-R232 cells [4]; in experiment [10]) were “higher level of TBK1 phosphorylation than ADU-S100” and “lower”, respectively. Moreover, the IFNβ production entry with MV4-11 cells [5] is listed as “produced IFNβ, but with a level much lower than that in THP1 cells”; in the experiment on MOLM-16 cells [6] it was “produced IFNβ, but with a level much lower than that in THP1 cells”. The GI50 in the experiment on THP1-STING-R232 cells [7] came to 23 nM; in the experiment on MV4-11 cells [11], 1 nM; with MOLM-16 cells [12], 2.6 nM. In addition, in the experiment on THP1-STING-KO cells [8], the cell growth inhibition result is given as “not detectable”. The “potency in IRF luciferase reporter” value in experiment [9] was “much better potency”. In addition, the “monkey IFNβ production” value in the experiment on cynomolgus PBMC is listed as “lower than that with that of ADU-S100, but still detectable”.

Usually GI50 stands for the concentration that inhibits growth by half.
